Measured values from patent US4829086A, “Soft β-adrenergic blocking agents” (priority 1985, dated 1989).
Structures can show the parent of a compound that is named as a salt. Where two headings read alike, the source gives them in different places.

Key:
[1] = tested on: heart rate response to isoproterenol (β-adrenergic); assay: Heart rate response to isoproterenol in rats (initial drug screening); format: in vivo, male Spraque-Dawley rats; settings: 6 mg/kg i.p.; for resting heart rate prior to administration of isoproterenol: mean ± SEM
From the text: (§1) Initial Drug Screening Protocol. Thirty-two male Spraque-Dawley rats (Blue Spruce Farms) initially weighing 300-450 gm were divided into seven different groups, each for a different drug to be tested: 12(n=4), 14(n=4), 17(n=5), 13(n=4) and 18(n=3), corresponding to the designated compounds 12, 14, 17, 13 and 18 (number of animals), respectively. The other two groups were controls (n=8, isoproterenol alone pretreated with carrier) and those treated with a known β-blocker, dl-propranolol (n=3). Ech animal was anesthetized with sodium pentobarbital (45 mg/kg) and the carotid artery was cannulated with PE-50 tubing. The cannula was subcutaneously threaded around the neck and exteriorized dorsally between the shoulder blades. Th cannula was filled with a heparin solution (300 μg/mL) and sealed with a solid 22 gauge stylet. The animals were housed in individual stainless steel cages, and two days were allowed for recovery from the surgery. Food and water were provided ad libitum. On the day of the experiment, the blood pressure and heart rate of each rat were monitored with a pressure transducer (Narco-Bio model P-1000) and the data recorded on a four-channel physiograph (Narco-Bio systems Marck IV). One hour was allowed as an equilibration period before any drugs were administered. All beta blockers were administered intraperitoneally at a dose of 6 mg/kg. Compounds 12 and 14 and dl-proranolol were dissolved in normal saline while compounds 13, 17 and 18 were dissolved in an ethanol: water solution (3:1). Depending on the trial, controls were administered the appropriate carrier. One hour after administration of the blocker, isoproterenol (Isuprel®, Wintrop Laboratories) was administered subcutaneously at a dose of 25 μg/kg. Blood pressures and heart rate also were recorded 3, 5, 10, 15, 20, 30, 45 and 60 minutes after isoproterenol administration. Both control and experimental animals were unrestrained and free moving in their home cage throughout the experiment. […] However, significant differences in the mean heart rate response amoung the 7 groups were observed: *p<0.005;**p<0.025. Comparisons between groups were made by the Newman-Keuls procedure with significance set at the 95% confidence interval. […] All data are shown as mean±standard error of the mean.

[2] = Hydrolytic rate in 0.01 N aqueous sodium hydroxide, pH 12.0; format: physicochemical; settings: for Observed pseudo first order hydrolytic rate constant k: 0.01 N NaOH, ± SEM; for Observed pseudo first order hydrolytic rate constant k / half-life: pH 12.0, ionic strength 0.10 M (NaCl), 27.3 ± 0.2° C.; for half-life: 0.01 n naoh, pH 12, 0.01 N NaOH, read-out: Half-life t1/2
Protocol: (§2) Analytical Methods. A high pressure liquid chromatography (HPLC) method was developed for the determination of the rate constants. The chromatographic analysis was performed in a system consisting of Waters Associates Model 600-A Solvent Delivery System, Model U-6K Injector and Model 440 Dual Channel Absorbance Detector operated at 254 and 280 nm. A 30 cm×3.9 mm (internal diameter) reverse phase μBondpack C18 column (Waters Associates), operated at ambient temperature, was used for all separations. When plasma samples were analyzed, the column was protected with a 2.3 cm×3.9 mm (internal diameter) Guard Column (Waters) packed with μBondpack C18/Corasil packing material. The mobile phase used for the separation of 17 and its degradation product, 5, consisted of water, 1-hexane sulfonic acid in acetic acid (B-6 reagent, Waters), 0.1M triethanolamine and methanol (100:1:100:799). […] For the separation of compounds 10-16 and 18 and their degradation product 5, a mobile phase consisting of water, 1-hexane sulfonic acid in acetic acid (B-6 reagent, Waters), 0.1M triethanolamine and methanol (390:1:10:599) was used.
(§3) Determination of the Hydrolytic Rate Constants in Aqueous Solutions. A 0.01M phosphate buffer and 0.01N sodium hydroxide solution were prepared from freshly distilled deionized water. This ionic strength was maintained at 0.1M with sodium chloride. The pH of the phosphate buffer was determined at 37.0° C. with a pH meter standardized at this temperature. For determination of the hydrolytic rate constants, a fresh concentrated solution of the ester in methanol was added to the hydrolytic medium previously equilibrated to the desired temperature and mixed thoroughly to result in an initial concentration of about 5×10^-4 mol. liter^-1. All reactions were run under pseudo first order conditions. Samples of 25 μL were injected into the column at various time intervals and the pseudo first order rate constants were determined from disappearance of the compound by linear regression of natural logarithm of the peak height versus time plots. The half-life and standard error of the rate constant were calculated for each run.

[3] = tested on: heart rate response to isoproterenol (β-adrenergic); assay: Cardiovascular experiments in dogs: blockade of isoproterenol heart rate response; format: in vivo, mongrel dogs; settings: for Duration, Mean (time at which response to isoproterenol had returned to control levels) / Duration, Range (time at which response to isoproterenol had returned to control levels) / Maximal blockade, Mean (time necessary to reach maximal blockade) / Maximal blockade, Range (time necessary to reach maximal blockade): 1 mg/kg i.v.; for Maximal blockade, Mean (time necessary to reach maximal blockade) / Maximal blockade, Range (time necessary to reach maximal blockade): 15 minute measurements
Protocol: Method. Healthy, mongrel dogs were anesthetized with a combination of morphine sulfate (2.0 mg/kg, subcutaneously) followed in 20 minutes with pentabarbital sodium (15 mg/kg, intravenously). Supplemental pentabarbital was given as necessary. A femoral vein was catheterized with polyethylene tubing to the level of the heart for injecting drug solutions. A polyethylene tube filled with heparinized saline was inserted through the femoral artery and advanced to the thoracic aorta for the measurement of arterial pressure. The left carotid artery was cannulated with a Millar® transducer-tip catheter for measurement of left ventricular pressure (LVP). The rising slope of the LVP signal was differentiated to give dP/dt, an estimate of myocardial contractility. Heart rate was determined via a Grass cardiotachometer triggered by the R wave of the lead II EKG. All variables were recorded on a Grass polygraph.
Dose-response curves were constructed for each experimental variable to graded i.v. doses of the β-adrenergic agonist, isoproterenol. A period of 3-5 minutes was allowed after each injection for variables to return to base-line. Following this, one of the four experimental β-adrenergic blocking agents was given i.v. over a one-minute period. Abbreviated dose-response curves (2-3 dose points) were again constructed to isoproterenol at 15, 30, 45, 60, 75 and 90 minutes after the administration of the test blockers. Using a 50-beat per minute (bpm) increase in heart rate as criteria, the degree of blockade was determined by dividing the dose of isoproterenol needed to produce a 50 bpm increase at various times following administration of an antagonists by the dose needed for this effect during the control period. The doses of the experimental β-adrenergic antagonists given were determined from previous experiments to produce an approximate two- or four-fold blockade of the heart rate response to isoproterenol.

[4] = Enzymatic hydrolytic cleavage in human plasma; format: in vitro ADME; settings: for Observed first order hydrolytic rate constant k: ± SEM; for half-life at 1000 µM: human, plasma; for hydrolysis in human plasma: three hours where stated
Protocol: as §2, §3
Determination of the Enzymatic Hydrolytic Cleavage Rates in Human Plasma. The freshly collected plasma used was obtained from the Civitan Regional Blood Center, Inc. (Gainesville, Fla.) and contained about 80% plasma diluted with anticoagulant citrate phosphate dextrose solution, U.S.P. The plasma was stored in a refrigerator and used within one week from the date it was collected.
A portion of 50 μL of a freshly prepared solution of the compound in methanol was added to 10 mL plasma, previously equilibrated at 37.0° C. in a water bath, and mixed thoroughly to result in an initial concentration of 1×10^-3 mol. liter^-1. One mL samples of plasma were withdrawn from the test medium, mixed immediately with 4.0 mL ice cold 95% v/v ethanol, centrifuged and the supernatant analyzed by HPLC. The first order hydrolytic rate constant was determined as before in the aqueous solutions and the results are listed in TABLE II below.

[5] = tested on: blood pressure response to isoproterenol; assay: Blood pressure response to isoproterenol in rats; format: in vivo, male Spraque-Dawley rats; settings: 6 mg/kg i.p.
From the text: as §1
Symbols are the same as those described for FIG. 1. […] Data are shown as mean±standard error of the mean.

[6] = 37.0 ± 0.1° C., read-out: Half-life t1/2

Structure (SMILES) | Observed pseudo first order hydrolytic rate constant k [2] | half-life [2] [min] | Observed first order hydrolytic rate constant k ([4]; 37.0 ± 0.1° C.) | half-life at 1000 µM [4, 6] [min] | resting heart rate prior to administration of isoproterenol [1] [beat/minute] | Duration, Mean (time at which response to isoproterenol had returned to control levels) [3] | Duration, Range (time at which response to isoproterenol had returned to control levels) [3] [min] | Maximal blockade, Mean (time necessary to reach maximal blockade) [3] [min] | Maximal blockade, Range (time necessary to reach maximal blockade) [3] | other results
CC(C)NCC(O)COc1cccc2ccccc12 (racemic) [d,l-propranolol, dl-propranolol, reference compound] | – | – | – | – | 320±23 | – | – | – | – | –
CCOC(=O)Cc1ccc(OCC(O)CNC(C)C)cc1 (centres unmarked) [Compound 10, Ethyl 4-(2-hydroxy-3-isopropylamino)-propoxyphenylacetate] | 0.117 ± 0.001 min⁻¹ | 5.91 | 0.238 ± 0.010 min⁻¹ | 2.91 | – | ~ 50 min | 45 to 60 | 15 | 15-15 min | –
CC(C)NCC(O)COc1ccc(CC(=O)OC(C)C)cc1 (centres unmarked) [Compound 12, Isopropyl 4-(2-hydroxy-3-isopropylamino)propoxyphenylacetate] | 2.07 ± 0.03 × 10^-2 min^-1 | 33.5 | 0.414 ± 0.001 × 10^-2 min^-1 | 167 | 345±19 | – | – | – | – | hydrolyzed up to x times more slowly than many of the other esters [4]: up to 100 times
CCCCOC(=O)Cc1ccc(OCC(O)CNC(C)C)cc1 (centres unmarked) [Compound 13, n-Butyl 4-(2-hydroxy-3-isopropylamino)propoxyphenylacetate] | 9.27 ± 0.07 × 10^-2 min^-1 | 7.48 | – | – | 340±14 | – | – | – | – | mean change in blood pressure vs propranolol and compound 12-treated groups ([5]; isoproterenol 25 μg/kg s.c., FIG. 3): significantly lower (p<0.15); mean change in blood pressure at 10 minutes vs compound 12-treated group ([5]; 10 minutes after isoproterenol): different from the compound 12-treated group; mean change in blood pressure at 10 minutes vs compound 18 group ([5]; 10 minutes after isoproterenol): significantly different from the group treated with compound 18; mean change in blood pressure at 15 minutes vs compound 12, 18 and control vehicle ([5]; 15 minutes after isoproterenol): significantly different from groups pretreated with compound 12, 18 and the control vehicle; half-life at 1000 µM ([4]; read-out: in vitro plasma half-life): ~1 min; control of heart rate 60 minutes after administration ([1]; FIG. 1): effectively control the heart rate
CC(C)NCC(O)COc1cccc2ccccc12 (centres unmarked) [propranolol, reference compound] | – | – | – | – | – | – | – | – | – | mean heart rate response to isoproterenol, comparison between groups ([1]; 1 hour before isoproterenol 25 μg/kg s.c., Newman-Keuls, first 20 minutes (17) or first 30 minutes (propranolol)): significantly different for the first 30 minutes; mean heart rate response to isoproterenol vs groups treated with compound 12 and 18 ([1]; 10 through 45 minutes following isoproterenol): significantly different than the groups treated with compound 12 and 18

Continued, in another order:

Observed pseudo first order hydrolytic rate constant k [2] | half-life [2] [min] | Observed first order hydrolytic rate constant k ([4]; 37.0 ± 0.1° C.) | half-life at 1000 µM [4, 6] [min] | Structure (SMILES) | resting heart rate prior to administration of isoproterenol [1] [beat/minute] | Duration, Mean (time at which response to isoproterenol had returned to control levels) [3] | Duration, Range (time at which response to isoproterenol had returned to control levels) [3] [min] | Maximal blockade, Mean (time necessary to reach maximal blockade) [3] [min] | Maximal blockade, Range (time necessary to reach maximal blockade) [3] | other results
4.96 ± 0.03 × 10^-2 min^-1 | 14 | 1.46 ± 0.15 min⁻¹ | 0.47 | CC(C)NCC(O)COc1ccc(CC(=O)OC2CCCCC2)cc1 (centres unmarked) [Compound 15, Cyclohexyl 4-(2-hydroxy-3-isopropylamino)propoxyphenylacetate oxalate 3/4 hydrate] | – | ~ 85 min | 75 to 90 | 20 | 15 to 30 min | duration of action ([3]; i.v.): longest duration of action; time after administration at which antagonism dissipated / heart rate responsiveness returned to control ([3]; i.v.): approximately 90 minutes; β1-antagonist activity / blocking of cardiac effects of isoproterenol ([3]; i.v., FIG. 4): most potent in blocking the cardiac effects of isoproterenol; half-life at 1000 µM ([4]; shortest, read-out: plasma hydrolytic half-life): < 1 min
– | – | 1.64 ± 0.14 × 10^-2 min^-1 | 42.2 | CC(C)NCC(O)COc1ccc(CC(=O)OC2C(C)CCCC2C)cc1 (centres unmarked) [Compound 16, 2,6-Dimethylcyclohexyl 4-(2-hydroxy-3-isopropylamino)propoxyphenylacetate oxalate hydrate] | – | ~ 65 min | 45 to 90 | 38 | 15 to 60 min | hydrolysis kinetics ([2]; pH 12, 1:2 mixture of two isomers): biphastic kinetics; duration of action ([3]; i.v.): much more variable and generally longer; hydrolysis in human plasma ([4]; 37.0 ± 0.1° C., oxalate hydrate): did not hydrolyze in the plasma within 3 hours
7.19 ± 0.04 × 10^-2 min^-1 | 9.64 | 0.351 ± 0.019 min⁻¹ | 1.98 | CCCCOC(=O)Cc1ccc(OCC(O)CNC(C)(C)C)cc1 (centres unmarked) [Compound 18, n-Butyl 4-(2-hydroxy-3-tert-butylamino)propoxyphenylacetate oxalate hydrate] | 307±7 | – | – | – | – | hydrolysis in human plasma ([4]; 37.0 ± 0.1° C.): did not affect the hydrolysis rates
